Test results taken from paper PMC12227560, “Total synthesis of a sorrentanone ester library and evaluation of its antimicrobial potential” (Scientific Reports, 2025).
In brackets after ≈: the same amount, converted by molar mass.

Key:
[1] = system: C. albicans ATCC 10231 hyphae formation; test: Filamentation test on Candida (solid spider medium); assay type: cell-based, Candida albicans; conditions: 0.5 times MIC; 120 h; C. albicans ATCC10231
Experimental: Filamentation test on Candida: Using solid composition, the effect of sorrentano ne […]
albicans cells from an overnight culture grown in Sabouraud dextrose broth medium at 37 °C with or without compounds were centrifuged for 10 minutes at maximum speed, and the pellet was washed several times with sterile PBS (phosphate -buffered saline). After it, the pellet was resuspended in 200 µL PBS, and 2 µL of cell suspension was poured over solid composition and incubated at 37 °C for 120 h. Morphological changes of C. albicans ATCC

[2] = system: ergosterol in C. albicans; test: Ergosterol biosynthesis assay; assay type: cell-based, Candida albicans; conditions: 0.5 MIC; Candida cells; UV profile
Experimental: (§1) Ergosterol biosynthesis assay: Ergosterol levels were measured according to the published procedure with some minor modifications. 10 Briefly, a sing le C. albicans colony from an overnight Sabouraud dextrose agar plate was used to inoculate 50 ml of Sabouraud dextrose broth containing 0.5 MIC concentrated compounds. Incubation was performed for 18 h at 37 °C on the rotary shaker at 180 rpm. Cells were harvested by centrifugation at 3000 rpm for 5 min and washed once with sterile distilled water. The net wet weight of the cell pellet was determined. Three milliliters of 25% alcoholic potassium hydroxide solution (25 g of KOH and 35 ml of sterile distill ed water, brought to 100 ml with 100% ethanol), was added to each pellet and vortex mixed for 1 min and incubated in an 85 °C water bath for 1 h. Tubes were cooled to room temperature and extraction of sterols was done with the addition of a mixture of 1 ml of sterile distilled water and 3 ml of n-heptane followed by vigorous vortex mixing for 3 min. The heptane layer was used for spectrophotometrically measuring ergosterol concentrations by scanning absorbance between 240 nm and 300 nm using Ultrospec 3300pro 573 (Amer sham Biosciences, Amersham, UK).

B. subtilis ATCC6633 = test: Antimicrobial broth micro-dilution assay (MIC); assay type: cell-based; conditions: Bacillus subtilis; B. subtilis ATCC6633; 24 h at 37 °C; highest tested concentration 250 µg/mL; read-out: Minimum inhibitory concentration (MIC)
Excerpt: (§2) 3. Bioactivity and Toxicity Assays
(§3) Antimicrobial assay: According to the standard broth micro-dilution assays, following the Standards of European Committee on Antimicrobial Susceptibility Testing (v 7.3.1: Method for the determination of broth dilution minimum inhibitory concentrations of antifungal agents for yeasts) for Candida spp., and according to the standard broth micro-dilution assays, recommended by the National Committee for Clinical Laboratory Standards (M07-A8) for bacteria MIC values of compounds were determinate. Compounds were dissolved in DMSO at a concentration of 50 mg/mL, and the highest tested concentration was 250 µg/mL. The inoculums were 1x10^5 colony forming units (CFU/mL), for Candida species, and bacteria species, 5x10^5 colony forming units (CFU/mL). The MIC value was recorded as the lowest concentration that inhibited the growth after 24 h at 37 °C. Additionally, 5 µL from each well of 96 well plates was transferred to Luria Agar (LA) plates for bacteria and Sabouraud agar (SAB) plates for Candida spp. and incubated for an additional 24 h at 37 °C, to determine MBC (Minimum bactericidal/fungicidal concentration) values. In Table 1. Are labeled compounds showing a difference in MBC and previously determined MIC values. […]

E. coli NCTC9001 = test: Antimicrobial broth micro-dilution assay (MIC); assay type: cell-based; conditions: Escherichia coli; E. coli NCTC9001; 24 h at 37 °C; highest tested concentration 250 µg/mL; read-out: Minimum inhibitory concentration (MIC)
Excerpt: as §2, §3

S. aureus ATCC25923 = test: Antimicrobial broth micro-dilution assay (MIC); assay type: cell-based; conditions: Staphylococcus aureus; S. aureus ATCC25923; 24 h at 37 °C; highest tested concentration 250 µg/mL; read-out: Minimum inhibitory concentration (MIC)
Excerpt: as §2, §3

S. aureus MRSA = test: Antimicrobial broth micro-dilution assay (MIC); assay type: cell-based; conditions: Staphylococcus aureus; S. aureus MRSA; 24 h at 37 °C; highest tested concentration 250 µg/mL; read-out: Minimum inhibitory concentration (MIC)
Excerpt: as §2, §3

P. aeruginosa ATCC27853 = test: Antimicrobial broth micro-dilution assay (MIC); assay type: cell-based; conditions: Pseudomonas aeruginosa; P. aeruginosa ATCC27853; 24 h at 37 °C; highest tested concentration 250 µg/mL; read-out: Minimum inhibitory concentration (MIC)
Excerpt: as §2, §3

C. albicans ATCC10231 = test: Antimicrobial broth micro-dilution assay (MIC); assay type: cell-based; conditions: Candida albicans; C. albicans ATCC10231; 24 h at 37 °C; highest tested concentration 250 µg/mL; read-out: Minimum inhibitory concentration (MIC)
Excerpt: as §2, §3

[3] = system: two S. aureus strains and B. subtilis ATCC6633; test: Antimicrobial assay, Gram-positive bacteria; assay type: cell-based; conditions: from MIC values
Excerpt: as §2, §3

Caenorhabditis elegans = test: In vivo toxicity C. elegans survival assay; conditions: for survival rate: C. elegans, 50 µg/mL (highest tested concentration), 48 h
Experimental: 3. Bioactivity and Toxicity Assays […]
Compounds were dissolved in DMSO at a concentration of 50 mg/mL, and the highest tested concentration was 250 µg/mL. […]
In vivo toxicity C. elegans assay: The C. elegans survival assay was carried out as described previously with some modifications. 8 In brief, synchronized worms (L4 stage) were suspended in a medium containing 95% M9 buffer (3.0 g of KH2PO4, 6.0 g of Na2HPO4, 5.0 g of NaCl, and 1 mL of 1 M MgSO4 × 7H2O in 1 L of water), 5% LB (Luria-Bertani) broth (Oxoid, Basingstoke, UK), and 10 μg of cholesterol (Sigma -Aldrich, Munich, Germany) per mL. The experiment was carried out in 96 -well flat -bottomed microtiter plates (Sarstedt, Nümbrecht, Germany) in the final volume of 100 μL per wel l. 25 μL of this suspension of nematodes (25 –35 nematodes) were transferred to the wells of a 96 -well microtiter plate, where 50 μL of the medium was previously added. Next, 25 μL of a solvent control (DMSO) or 25 μL of a concentrated solution was added to the test wells. The final concentrations of the compounds were 50, 25, 10, and 5 µg/mL. Subsequently, the plates were incubated at 25 °C for 2 days. The fraction of dead worms was determined after 48 h by counting the number of dead worms and the total number of worms in each well, using a stereomicroscope (SMZ143-N2GG, Motic, Germany).
As a negative control experiment, nematodes were exposed to the medium containing 1% […]
as §1

SMILES | filamentation (in words) [1] | reduction of total amount of ergosterol (in words) [2] | MIC (B. subtilis ATCC6633) | MIC (E. coli NCTC9001) | MIC (S. aureus ATCC25923) | MIC (S. aureus MRSA) | MIC (P. aeruginosa ATCC27853) | MIC (C. albicans ATCC10231) | improvement of antibacterial activity compared to sorrentanone (7) [3] | survival rate (Caenorhabditis elegans) | in vivo toxicity (in words) (Caenorhabditis elegans; C. elegans model)
CC1=C(O)C(=O)C(C)=C(C(=O)OCc2ccccc2)C1=O [compound 41] | hardly observed | most potent in reducing the total amount of ergosterol | 15.6 µg/mL (≈ 54.5 µM) | > 250 µg/mL | 31.2 µg/mL (≈ 109 µM) | 15.6 µg/mL (≈ 54.5 µM) | > 250 µg/mL | 62.5 µg/mL (≈ 218 µM) | two- to four-fold improved activity | over 90% | –
CC1=C(O)C(=O)C(C)=C(C(=O)OCCCC(C)C)C1=O [compound 36] | hardly observed | most potent in reducing the total amount of ergosterol | 31.2 µg/mL (≈ 111 µM) | > 250 µg/mL | 15.6 µg/mL (≈ 55.7 µM) | 31.2 µg/mL (≈ 111 µM) | > 250 µg/mL | 62.5 µg/mL (≈ 223 µM) | two- to four-fold improved activity | over 90% | comparatively lower in vivo toxicity
